Drawing on ChEMBL document CHEMBL2062404, “Purification and antiradical properties of the structural unit of betalains” (J Nat Prod, 2012), this text covers Activity for 2 molecules.

Activity calls are given as the source filed them. No cut-off for these calls is given here.

Holding throughout (assay type): functional
A short description of test [1]: Antioxidant activity against ABTS radical assessed as trolox equivalent after 24 hr at pH 7.
A short description of test [2]: Antioxidant activity against ABTS radical assessed as trolox equivalent at 50 uM after 24 hr at pH 5.5.
Test [3] in a line: Antioxidant activity against ABTS radical assessed as trolox equivalent at 50 uM after 24 hr at pH >5.5.
A short description of test [4]: Antioxidant activity assessed as ferric ion reduction by 2,4,6-tris(2- pyridyl)-s-triazine-based spectrophotometry.

`O=C/C=C1/C=C(C(=O)O)N[C@H](C(=O)O)C1`: the Activity in test [1] worked out at 2.7 equiv. For the same molecule, the outcome in test [2] was inactive. Moreover, the result in test [3] and in test [4] was Active.

Regarding `Oc1ccc(/C=C/c2cc(O)cc(O)c2)cc1`, the Activity in test [1] amounted to 2.7 equiv.
